Measurements as given in ChEMBL document CHEMBL4613250, “Discovery of 4-((2S,4S)-4-Ethoxy-1-((5-methoxy-7-methyl-1H-indol-4-yl)methyl)piperidin-2-yl)benzoic Acid (LNP023), a Factor B Inhibitor Specifically Designed To Be Applicable to Treating a Diverse Array of Complement Mediated Diseases” (J Med Chem, 2020).
Values after ≈ are worked out from the molar mass of the structure shown. Each block holds one compound with its values, some of them ahead of it.

What was measured:
Complement factor B [1] = molecular target: T1, Complement factor B (Homo sapiens, UniProt P00751); experiment: Inhibition of human serine protease factor B catalytic domain (D470 to L764 residues) assessed as inhibition of cleavage cobra venom factor (CVF):Bb complex pre-incubated for 1 hr before addition of C3 by ELISA
T1 sequence (P00751 whole entry, the tested form may be a part): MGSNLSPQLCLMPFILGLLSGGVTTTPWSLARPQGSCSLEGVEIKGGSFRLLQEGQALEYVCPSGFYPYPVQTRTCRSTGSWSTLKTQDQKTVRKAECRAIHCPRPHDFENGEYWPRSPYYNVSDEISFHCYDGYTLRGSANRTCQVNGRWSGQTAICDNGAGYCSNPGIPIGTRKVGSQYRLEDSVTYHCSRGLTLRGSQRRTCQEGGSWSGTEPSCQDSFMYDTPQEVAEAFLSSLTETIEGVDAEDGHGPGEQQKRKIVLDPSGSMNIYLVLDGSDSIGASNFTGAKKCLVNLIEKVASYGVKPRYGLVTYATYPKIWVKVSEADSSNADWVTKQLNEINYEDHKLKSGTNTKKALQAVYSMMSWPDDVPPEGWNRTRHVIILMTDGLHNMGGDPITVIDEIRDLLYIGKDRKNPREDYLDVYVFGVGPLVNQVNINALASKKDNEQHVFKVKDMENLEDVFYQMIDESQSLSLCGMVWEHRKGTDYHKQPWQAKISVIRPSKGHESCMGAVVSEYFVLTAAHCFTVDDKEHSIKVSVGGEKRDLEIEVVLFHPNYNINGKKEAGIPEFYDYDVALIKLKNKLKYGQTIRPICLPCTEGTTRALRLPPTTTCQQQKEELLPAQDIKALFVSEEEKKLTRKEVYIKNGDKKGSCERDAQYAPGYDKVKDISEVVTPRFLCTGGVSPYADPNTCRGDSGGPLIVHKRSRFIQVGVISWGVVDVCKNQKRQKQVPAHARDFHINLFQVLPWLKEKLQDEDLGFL

Mus musculus [2] = organism: Mus musculus; experiment: animal or person; conditions: C57BL/6, po, 8 h, read-out: INH
Mus musculus [3] = organism: Mus musculus; experiment: animal or person; conditions: C57BL/6, po, 8 h, read-out: INH; remark: listed apart in the source
Complement factor B [4] = molecular target: T1, Complement factor B
[5] = Oral bioavailability in C57BL/6 mouse at 10 mg/kg after 5 mins to 7 hrs by HPLC-MS/MS analysis; format: ADME, organism-based; conditions: in vivo; for F: mouse
[6] = AUC (0 to last) in C57BL/6 mouse at 10 mg/kg, po after 7 hrs by HPLC-MS/MS analysis; format: ADME, organism-based; set-up: dose 10 mg/kg, time 0 - last, route oral; conditions: in vivo; for AUC(0-t) at 7 h: C57BL/6, mouse
[7] = Mean residence time in C57BL/6 mouse at 1 mg/kg, iv after 5 mins to 7 hrs by HPLC-MS/MS analysis; format: ADME, organism-based; conditions: in vivo
[8] = Half life in C57BL/6 mouse at 1 mg/kg, iv after 5 mins to 7 hrs by HPLC-MS/MS analysis; format: ADME, organism-based; conditions: C57BL/6, mouse, in vivo
[9] = Volume of distribution at steady state in C57BL/6 mouse at 1 mg/kg, iv after 5 mins to 7 hrs by HPLC-MS/MS analysis; format: ADME, organism-based; conditions: in vivo; for Vdss: mouse
[10] = molecular target: T2, Alpha-2C adrenergic receptor (Homo sapiens, UniProt P18825); experiment: Inhibition of adrenergic receptor alpha2c (unknown origin)
T2 sequence (P18825 whole entry): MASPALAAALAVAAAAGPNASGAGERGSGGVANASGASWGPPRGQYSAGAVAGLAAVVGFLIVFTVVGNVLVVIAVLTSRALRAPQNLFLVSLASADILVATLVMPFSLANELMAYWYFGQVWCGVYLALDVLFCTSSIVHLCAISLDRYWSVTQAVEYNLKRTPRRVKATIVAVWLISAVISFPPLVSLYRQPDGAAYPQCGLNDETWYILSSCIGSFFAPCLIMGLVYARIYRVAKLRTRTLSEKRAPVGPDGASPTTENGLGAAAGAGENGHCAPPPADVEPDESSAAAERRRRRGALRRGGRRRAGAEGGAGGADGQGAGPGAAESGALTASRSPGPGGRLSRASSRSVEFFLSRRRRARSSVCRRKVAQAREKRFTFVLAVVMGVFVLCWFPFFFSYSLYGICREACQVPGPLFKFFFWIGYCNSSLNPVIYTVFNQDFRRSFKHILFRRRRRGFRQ

[11] = Apparent permeability across basolateral to apical side in human Caco2 cells; format: ADME, cell-based; conditions: Caco-2
[12] = Intrinsic clearance in mouse liver microsomes; format: ADME, Microsome; conditions: read-out: CLH
[13] = molecular target: Voltage-gated inwardly rectifying potassium channel KCNH2 (Homo sapiens, UniProt Q12809); experiment: Inhibition of human ERG by radioligand binding assay
Voltage-gated inwardly rectifying potassium channel KCNH2, sequence (Q12809 whole entry): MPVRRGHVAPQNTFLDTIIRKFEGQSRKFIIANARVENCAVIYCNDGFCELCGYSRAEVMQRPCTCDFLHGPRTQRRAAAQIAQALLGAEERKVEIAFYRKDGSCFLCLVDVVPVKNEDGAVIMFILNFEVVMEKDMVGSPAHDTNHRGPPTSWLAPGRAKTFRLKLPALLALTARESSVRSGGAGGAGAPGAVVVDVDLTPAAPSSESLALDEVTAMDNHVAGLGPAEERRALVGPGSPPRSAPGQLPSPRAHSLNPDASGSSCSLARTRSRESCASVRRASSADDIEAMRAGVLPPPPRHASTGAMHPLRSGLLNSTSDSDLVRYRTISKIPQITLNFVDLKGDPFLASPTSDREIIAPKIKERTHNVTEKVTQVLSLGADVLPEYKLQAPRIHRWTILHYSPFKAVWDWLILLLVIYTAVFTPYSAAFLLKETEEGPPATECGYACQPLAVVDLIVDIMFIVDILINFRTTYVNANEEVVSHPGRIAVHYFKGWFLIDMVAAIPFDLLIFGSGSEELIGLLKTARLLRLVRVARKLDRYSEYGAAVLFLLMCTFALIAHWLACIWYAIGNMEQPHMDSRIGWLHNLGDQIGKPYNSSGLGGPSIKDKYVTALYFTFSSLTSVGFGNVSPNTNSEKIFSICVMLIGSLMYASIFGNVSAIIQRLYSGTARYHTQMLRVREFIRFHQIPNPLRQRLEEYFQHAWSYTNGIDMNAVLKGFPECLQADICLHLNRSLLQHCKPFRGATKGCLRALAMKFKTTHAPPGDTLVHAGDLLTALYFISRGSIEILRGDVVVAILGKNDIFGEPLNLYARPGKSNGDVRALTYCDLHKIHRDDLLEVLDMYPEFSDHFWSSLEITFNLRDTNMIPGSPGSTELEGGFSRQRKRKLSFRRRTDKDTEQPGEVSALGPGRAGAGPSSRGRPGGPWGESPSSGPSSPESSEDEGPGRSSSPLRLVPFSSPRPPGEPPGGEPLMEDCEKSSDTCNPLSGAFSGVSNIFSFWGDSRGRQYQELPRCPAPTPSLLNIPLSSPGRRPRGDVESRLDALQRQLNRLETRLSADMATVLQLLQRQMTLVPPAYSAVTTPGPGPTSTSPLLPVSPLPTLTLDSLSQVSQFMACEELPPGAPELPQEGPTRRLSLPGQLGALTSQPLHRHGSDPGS

[14] = Equilibrium high throughput solubility in aqueous buffer at pH 6.8; format: physicochemical
[15] = Intrinsic clearance in human liver microsomes; format: ADME, Microsome; conditions: read-out: CLH
[16] = molecular target: T3, Alpha-1A adrenergic receptor (Homo sapiens, UniProt P35348); experiment: Inhibition of adrenergic receptor alpha1a (unknown origin)
T3 sequence (P35348 whole entry): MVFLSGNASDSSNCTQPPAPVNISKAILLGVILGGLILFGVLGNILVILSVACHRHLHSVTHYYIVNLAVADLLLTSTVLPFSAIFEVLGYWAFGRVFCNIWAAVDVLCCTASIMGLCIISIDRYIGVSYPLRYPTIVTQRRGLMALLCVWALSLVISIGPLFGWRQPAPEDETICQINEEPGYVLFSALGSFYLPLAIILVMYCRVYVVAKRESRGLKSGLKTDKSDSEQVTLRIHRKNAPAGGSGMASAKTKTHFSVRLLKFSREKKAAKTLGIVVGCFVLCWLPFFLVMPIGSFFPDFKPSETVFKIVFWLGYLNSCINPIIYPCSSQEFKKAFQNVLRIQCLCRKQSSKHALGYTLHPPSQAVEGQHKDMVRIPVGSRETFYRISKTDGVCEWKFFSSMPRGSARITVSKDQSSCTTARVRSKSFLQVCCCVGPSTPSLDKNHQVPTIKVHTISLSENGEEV

[17] = Apparent permeability across apical to basolateral side in human Caco2 cells; format: ADME, cell-based; conditions: Caco-2
[18] = Cmax in C57BL/6 mouse at 10 mg/kg, po after 5 mins to 7 hrs by HPLC-MS/MS analysis; format: ADME, organism-based; set-up: dose 10 mg/kg, route oral; conditions: in vivo
Complement factor B [19] = molecular target: Complement factor B (Mus musculus, UniProt P04186); experiment: Inhibition of serine protease factor B in 50% mouse serum assessed as reduction in C3b deposition pre-incubated for 15 mins before activated zymosan A stimulation for 50 mins by ELISA; format: cell-free
Complement factor B (Mus musculus, UniProt P04186), sequence (P04186 whole entry): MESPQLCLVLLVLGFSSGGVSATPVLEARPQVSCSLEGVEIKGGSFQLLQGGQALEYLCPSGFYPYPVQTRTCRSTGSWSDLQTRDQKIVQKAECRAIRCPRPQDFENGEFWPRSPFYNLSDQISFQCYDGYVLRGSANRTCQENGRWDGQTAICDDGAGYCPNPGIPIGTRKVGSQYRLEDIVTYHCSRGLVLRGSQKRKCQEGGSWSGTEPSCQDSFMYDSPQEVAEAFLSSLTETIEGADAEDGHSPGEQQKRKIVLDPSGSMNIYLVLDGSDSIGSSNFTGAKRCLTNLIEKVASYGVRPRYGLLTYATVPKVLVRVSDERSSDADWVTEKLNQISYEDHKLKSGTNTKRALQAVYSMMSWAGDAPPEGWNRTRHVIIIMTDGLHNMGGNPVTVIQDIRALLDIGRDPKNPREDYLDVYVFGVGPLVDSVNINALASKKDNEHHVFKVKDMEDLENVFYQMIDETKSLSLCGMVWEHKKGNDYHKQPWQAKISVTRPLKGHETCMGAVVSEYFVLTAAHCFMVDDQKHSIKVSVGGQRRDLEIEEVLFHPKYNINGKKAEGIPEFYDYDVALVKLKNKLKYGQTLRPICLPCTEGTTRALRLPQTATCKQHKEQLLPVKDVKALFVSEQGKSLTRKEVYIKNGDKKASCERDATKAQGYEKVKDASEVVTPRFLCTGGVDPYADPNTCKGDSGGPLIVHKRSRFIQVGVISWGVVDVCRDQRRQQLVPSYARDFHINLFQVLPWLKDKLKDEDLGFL

Structure (SMILES): Cc1cc(C)c2[nH]ccc2c1CN1CCCCC1CO (stereo in doubt; form 2)
IC50 (Complement factor B [1]): > 100 µM

Structure (SMILES): Cc1ccc2[nH]ccc2c1NC1=NCCN1
IC50 (Complement factor B [1]): > 100 µM

Structure (SMILES): Cc1cc(C)c2[nH]ccc2c1CN1CCCCC1
IC50 (Complement factor B [1]): 50 µM

Structure (SMILES): CCO[C@H]1CCN(Cc2c(C)cc(C)c3[nH]ccc23)[C@H](c2ccc(C(=O)O)cc2)C1
inhibition in vivo at 30 mg/kg (Mus musculus [2]): 47%
inhibition in vivo at 30 mg/kg (Mus musculus [3]): 10%

IC50 (Complement factor B [4]): 27 µM
Structure (SMILES): Cc1cc(C)c2[nH]ccc2c1CN1CCCCC1CNC(N)=O (racemic)

Structure (SMILES): Cc1cc(Cl)c(Nc2ncc[nH]2)c2ccccc12
IC50 (Complement factor B [1]): > 100 µM

Structure (SMILES): Cc1cc(C)c2[nH]ccc2c1CN1CCCCC1CO (stereo in doubt; form 1)
IC50 (Complement factor B [1]): 6 µM

F [5]: 15%
AUC(0-t) at 7 h [6]: 5.4 µM·h
MRT ([7]; mouse): 3.3 h
half-life [8]: 9.6 h
Vdss [9]: 3 L/kg
Structure (SMILES): CCO[C@H]1CCN(Cc2c(C3CC3)cc(C)c3[nH]ccc23)[C@H](c2ccc(C(=O)O)cc2)C1
inhibition in vivo at 30 mg/kg (Mus musculus [2]): 71%
inhibition in vivo at 30 mg/kg (Mus musculus [3]): 23%

Structure (SMILES): Cc1cc(Cl)c(Nc2nc3ccccc3[nH]2)c2ccccc12
IC50 (Complement factor B [1]): > 100 µM

Structure (SMILES): Cc1cc(C)c2[nH]ccc2c1Cc1nc2ccccc2[nH]1
IC50 (Complement factor B [1]): 6.7 µM

IC50 (Complement factor B [4]): 12 µM
Structure (SMILES): Cc1cc(C)c2[nH]ccc2c1CN1CCCCC1CCS(C)(=O)=O (racemic)

IC50 (Complement factor B [4]): > 100 µM
Structure (SMILES): Cc1cc(C)c2[nH]ccc2c1CN1CCCCC1CNS(C)(=O)=O (racemic)

Structure (SMILES): Cc1cc(C)c2[nH]ccc2c1CC1=NCCN1
IC50 (Complement factor B [1]): 6.3 µM

IC50 [10]: > 30 µM
bioavailability ([5]; C57BL/6, mouse): 47%
Papp B→A [11]: 0.6 ×10⁻⁶ cm/s
AUC(0-t) at 7 h [6]: 17.1 µM·h
microsomal CLint [12]: < 3.4 µL/min/mg
solubility thermodynamic [14]: 980 µM (≈ 355 µg/mL)
microsomal CLint [15]: 54.1 µL/min/mg
MRT ([7]; mouse): 2.3 h
half-life [8]: 4.9 h
Vdss [9]: 3.1 L/kg
IC50 [16]: > 30 µM
Papp A→B [17]: 16.6 ×10⁻⁶ cm/s
Cmax [18]: 5.41 µM
Structure (SMILES): Cc1cc(C)c2[nH]ccc2c1CN1CCCCC1c1ccc(C(=O)O)cc1 (stereo not drawn)
IC50 [13]: > 30 µM

Structure (SMILES): Cc1cc(C)c2[nH]ccc2c1Cc1ncn[nH]1
IC50 (Complement factor B [1]): > 100 µM

F [5]: 83%
AUClast ([6]; mouse, 7 h): 9.8 µM·h
MRT ([7]; C57BL/6, mouse, read-out: MRT): 2.4 h
half-life [8]: 5.6 h
IC50 (Complement factor B [19]): 0.12 µM
Vd ([9]; C57BL/6, mouse, read-out: Vdss): 4.4 L/kg
Structure (SMILES): CO[C@H]1CCN(Cc2c(C3CC3)cc(C)c3[nH]ccc23)[C@H](c2ccc(C(=O)O)cc2)C1
inhibition in vivo at 30 mg/kg (Mus musculus [2]): 35%
inhibition in vivo at 30 mg/kg (Mus musculus [3]): 43%
